Assay results reported in patent US20040077888A1, “Polyamine-mediated transfection” (The Regents of the University of California, priority 2002, published 2004).

Legend:
NIH 3T3 cells [1] = test: Transfection of NIH 3T3 cells, luciferase assay; type: cell-based; details: for luciferase expression: FIG. 4, vs dimyristoyl analogs with the same DNA-binding domain
Method: (§1) Cell Culture. CHO cells (ATCC, Rockville, Md.) were cultured in 75 cm^2 cell culture flasks with HAMS F12 media containing 10% bovine calf serum. NIH 3T3 cells were grown in Dulbecco's modified Eagle's medium with 10% fetal calf serum. The cells were maintained at 37° C. in a 5% CO2 environment. Twenty-four hours prior to transfection, cells were split into 24 well plates at 60% confluence.
(§2) Transfection of CHO and NIH 3T3 Cells. Liposomal suspensions of the polyamines were diluted with Dulbecco's modified essential media (serum free) to obtain the desired concentration. The suspensions were vortex mixed followed by addition of an appropriate quantity of DNA to yield lipoplex preparations at the desired N/P ratio. […] Immediately prior to transfection, the cells were prepared by aspiration of the growth media. The lipoplex preparation was added to the cells (200 μL, 1 μg DNA/well). After incubation for 2 hours, the lipoplex solution was aspirated and replaced with growth media (500 μL),
(§3) Luciferase Assay. Cells were lysed 24 hours after lipoplex administration by adding 200 μL lysis buffer. Luciferase activity was assayed using the Enhanced Luciferase Assay Kit and a Moonlight 2010 luminometer (Pharmingen, San Diego, Calif.). Luciferase activity was measured as Relative Light Units (RLUs) from an aliquot of the cell lysate over a 10 sec. period. A luciferase standard curve was produced using serial dilutions of purified firefly luciferase (Pharmingen, San Diego, Calif.). Using the standard curve, relative light units are converted to μg of luciferase per μL of sample assayed, and expressed as μg luciferase per 60,000 cells. To ensure luminometer consistency, the instrument is calibrated with a luminometer light standard containing ^14C-toluene (Pharmingen, San Diego, Calif.).

pCMV.FOX.Luc-2 = test: Ethidium bromide displacement assay (DNA condensation); type: binding; details: polyamine:cholesterol liposomes, FIGS. 1A-C
Method: The assay set forth in FIGS. 1A-C is based on a decrease in fluorescence that occurs when ethidium bromide is displaced from DNA by adding cationic liposomes. The lipoplexes were formed by adding a DNA-ethidium bromide solution to a solution containing variable amounts of polyamine:cholesterol liposomes. The lipoplexes were then treated with an equal volume of either water or a TRIS buffered solution at various pHs. The resulting fluorescence was then measured to determine the relative concentration of intercalated ethidium bromide.
Ethidium Bromide Displacement Assay. Ethidium bromide (153 μL of a 0.01% solution) was added to 96 μg of pCMV.FOX.Luc-2. This DNA-ethidium bromide solution was diluted to a final volume of 6 mL. Different concentrations of the polyamine liposomes were added to each well of a 96 well microplate, to which 50 μL of the DNA-ethidium bromide solution was added to obtain a final volume of 100 μL. After 5 min. the lipoplexes were treated with 100 μL of water or buffer and gently shaken. The resulting fluorescence at 250 nm excitation and 610 nm emission was measured using a SpectraMax XS microplate fluorometer (Molecular Devices, Oregon).

NIH 3T3 cells [2] = test: GFP-annexin V flow cytometric assay in NIH 3T3 cells; type: cell-based; details: FIG. 6, polyamines vs dimyristoyl analogs with the same DNA-binding domain
Method: as §1, §2
Flow Cytometry. […] The cells were then analyzed using a dual channel FACScan (Becton Dickinson, San Jose, Calif.) with a 15 mW, 488 nm argon laser.
Using standard techniques, FACScan gating was set with control cells that were prepared simultaneously with the transfected cells. […] GFP fluorescence was measured with a 530/30 band pass filter on channel FL1. The Tri-color fluorescence was measured with a 675 nm band pass filter on […]. Transfection and mean expression were determined using the FL1 autofluorescence signal from control cells, compared to the transfected cell population.
Actinomycin-D (Sigma, St. Louis, Mo.) was used to treat non-transfected cells 24 hours prior to the assay to induce apoptosis. […] Non-treated cells were analyzed to establish baseline cytotoxicity and background auto-fluorescence. Each condition was transfected in triplicate and ten thousand cells were counted and simultaneously analyzed for GFP (transfection and expression) and Tri-color (annexin V) fluorescence. […]

CHO cells [3] = test: Transfection of CHO cells, luciferase assay; type: cell-based; details: for luciferase expression: FIG. 3, vs dimyristoyl analogs with the same DNA-binding domain; for transfection activity compared with LipofectAMINE PLUS and TransFast: two cell lines (CHO, NIH-3T3), luciferase and GFP vector
Method: as §1, §2, §3

CHO cells [4] = test: GFP-annexin V flow cytometric assay in CHO cells; type: cell-based; details: for GFP expression: FIG. 5, polyamines vs dimyristoyl analogs with the same DNA-binding domain
Method: Cell Culture. CHO cells (ATCC, Rockville, Md.) were cultured in 75 cm^2 cell culture flasks with HAMS F12 media containing 10% bovine calf serum. […] The cells were maintained at 37° C. in a 5% CO2 environment. Twenty-four hours prior to transfection, cells were split into 24 well plates at 60% confluence.
Flow Cytometry. Cells transfected with the plasmid vector pNDeGFP were trypsinized 24 h after transfection and resuspended in Dulbecco's phosphate buffered saline (DPBS). The resuspended cells were incubated 30 min. in a solution (1:40 dilution of commercial stock) containing annexin V conjugated to biotin (CalTag, Burlingame, Calif.). After a second DPBS wash, the cells were resuspended 30 min. in a solution (1:400 dilution of commercial stock) of the Tri-color fluorophore conjugated to streptavidin (CalTag, Burlingame, Calif.). After a final DPBS wash, the cells were resuspended in 500 μL DPBS. The cells were then analyzed using a dual channel FACScan (Becton Dickinson, San Jose, Calif.) with a 15 mW, 488 nm argon laser.
Using standard techniques, FACScan gating was set with control cells that were prepared simultaneously with the transfected cells. […] GFP fluorescence was measured with a 530/30 band pass filter on channel FL1. The Tri-color fluorescence was measured with a 675 nm band pass filter on channel FL2. Transfection and mean expression were determined using the FL1 autofluorescence signal from control cells, compared to the transfected cell population.
To further determine the influence of the chemical linker on cytotoxicity, flow cytometry was used to measure cell viability. Using a GFP-annexin V flow cytometric assay, cytotoxicity was simultaneously evaluated in transfected and total cell populations.

CCCCCCCC/C=C\CCCCCCCC(=O)OCC(COC(=O)CCCCCCC/C=C\CCCCCCCC)(COC(=O)CCNCCN(C)C)COC(=O)CCNCCN(C)C [polyamine 8]
transfection activity among the polyamines (NIH 3T3 cells [1]): superior to the other polyamines
luciferase expression (NIH 3T3 cells [1]): higher levels
DNA condensation (pCMV.FOX.Luc-2): condensed DNA with efficiency
GFP expression (NIH 3T3 cells [2]): higher levels
luciferase expression (CHO cells [3]; CHO cells): higher levels
transfection activity compared with LipofectAMINE PLUS and TransFast (CHO cells [3]): roughly comparable to LipofectAMINE PLUS and TransFast
GFP expression (CHO cells [4]): higher levels

CCCCCCCCCCCCCC(=O)OCC(COC(=O)CCCCCCCCCCCCC)(COC(=O)CCNCCN(C)C)COC(=O)CCNCCN(C)C [polyamine 5]
transfection activity among the polyamines (NIH 3T3 cells [1]): superior to the other polyamines

CCCCCCCC/C=C\CCCCCCCC(=O)OCC(COC(=O)CCCCCCC/C=C\CCCCCCCC)(COC(=O)CCNCCCN(C)C)COC(=O)CCNCCCN(C)C [polyamine 9]
luciferase expression (NIH 3T3 cells [1]): higher levels
DNA condensation (pCMV.FOX.Luc-2): condensed DNA with efficiency
GFP expression (NIH 3T3 cells [2]): higher levels
transfection activity among the polyamines (CHO cells [3]; CHO cells): most active analog
luciferase expression (CHO cells [3]; CHO cells): higher levels
transfection activity compared with LipofectAMINE PLUS and TransFast (CHO cells [3]): roughly comparable to LipofectAMINE PLUS and TransFast
GFP expression (CHO cells [4]): higher levels
population of cells expressing GFP (GFP positive, Annexin V negative) (CHO cells [4]; FIG. 5 black bars): largest population of cells expressing GFP with extremely low cytotoxicity

CCCCCCCC/C=C\CCCCCCCC(=O)OCC(COC(=O)CCCCCCC/C=C\CCCCCCCC)(COC(=O)CCNCCCCN(C)C)COC(=O)CCNCCCCN(C)C [polyamine 10]
luciferase expression (NIH 3T3 cells [1]): higher levels
DNA condensation (pCMV.FOX.Luc-2): condensed DNA with efficiency
GFP expression (NIH 3T3 cells [2]): higher levels
luciferase expression (CHO cells [3]; CHO cells): higher levels
GFP expression (CHO cells [4]): higher levels
